pIC50: −log10 of the molar value.
How the values were obtained:
Type in all cases: biochemical
PI3Kδ (p110δ/p85α) = PI3Kδ (p110δ/p85α) (Homo sapiens (Human), UniProt O00329); assay: PI3Kδ scintillation proximity assay; settings: 20 μM ATP; read-out: PI3Kδ SPA IC50
From the text: [γ-^33P]ATP (10 mCi/mL) was purchased from Perkin-Elmer (Waltham, MA). Lipid kinase substrate, D-myo-Phosphatidylinositol 4,5-bisphosphate (PtdIns(4,5)P2)D (+)-sn-1,2-di-O-octanoylglyceryl, 3-O-phospho linked (PIP2), CAS 204858-53-7, was purchased from Echelon Biosciences (Salt Lake City, UT). PI3Kδ (p110δ/p85α) was purchased from Millipore (Bedford, MA). ATP, MgCl2, DTT, EDTA, MOPS and CHAPS were purchased from Sigma-Aldrich (St. Louis, MO). Wheat Germ Agglutinin (WGA) YSi SPA Scintillation Beads was purchased from GE healthcare life sciences (Piscataway, NJ).
The kinase reaction was conducted in polystyrene 384-well matrix white plate from Thermo Fisher Scientific in a final volume of 25 μL. Inhibitors were first diluted serially in DMSO and added to the plate wells before the addition of other reaction components. The final concentration of DMSO in the assay was 0.5%. The PI3K assays were carried out at room temperature in 20 mM MOPS, pH 6.7, 10 mM MgCl2, 5 mM DTT and CHAPS 0.03%. Reactions were initiated by the addition of ATP, the final reaction mixture consisted of 20 μM PIP2, 20 μM ATP, 0.2 μCi [γ-^33P]ATP, 4 nM PI3Kδ. Reactions were incubated for 210 min and terminated by the addition of 40 μL SPA beads suspended in quench buffer: 150 mM potassium phosphate pH 8.0, 20% glycerol. 25 mM EDTA, 400 μM ATP. The final concentration of SPA beads was 1.0 mg/mL. After the plate sealing, plates were shaken overnight at room temperature and centrifuged at 1800 rpm for 10 minutes, the radioactivity of the product was determined by scintillation counting on Topcount (Perkin-Elmer). IC50 determination was performed by fitting the curve of percent control activity versus the log of the inhibitor concentration using the GraphPad Prism 3.0 software. IC50 data for the Examples is presented in Table B as determined by Assay A.

JAK1 = JAK1 (Homo sapiens (Human), UniProt P23458); assay: JAK1 IC50, Assay A of U.S. Ser. No. 14/680,659 at 1 mM ATP
Chain of JAK1 (P23458 837-1142): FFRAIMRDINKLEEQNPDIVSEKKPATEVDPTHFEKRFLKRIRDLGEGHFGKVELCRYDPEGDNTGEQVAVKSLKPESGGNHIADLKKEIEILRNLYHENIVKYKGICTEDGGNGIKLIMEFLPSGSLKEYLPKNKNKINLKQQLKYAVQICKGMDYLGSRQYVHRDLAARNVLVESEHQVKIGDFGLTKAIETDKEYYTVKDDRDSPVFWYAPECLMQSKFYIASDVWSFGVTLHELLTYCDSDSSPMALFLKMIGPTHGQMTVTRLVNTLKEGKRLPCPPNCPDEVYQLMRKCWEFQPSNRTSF

JAK2 = JAK2 (Homo sapiens (Human), UniProt O60674); assay: JAK2/JAK1 selectivity, Assay A at 1 mM ATP; settings: IC50 ratio
Chain of JAK2 (O60674 828-1132): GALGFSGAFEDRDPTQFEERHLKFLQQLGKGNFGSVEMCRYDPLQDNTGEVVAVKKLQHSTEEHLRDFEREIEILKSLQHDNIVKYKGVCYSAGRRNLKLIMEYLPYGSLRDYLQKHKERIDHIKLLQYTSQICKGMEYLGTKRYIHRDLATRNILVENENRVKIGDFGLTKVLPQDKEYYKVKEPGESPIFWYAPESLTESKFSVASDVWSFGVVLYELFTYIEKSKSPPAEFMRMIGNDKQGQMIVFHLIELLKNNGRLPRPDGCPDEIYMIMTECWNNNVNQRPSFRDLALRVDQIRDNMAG

Chain of PI3Kδ (p110δ/p85α) (O00329 whole entry): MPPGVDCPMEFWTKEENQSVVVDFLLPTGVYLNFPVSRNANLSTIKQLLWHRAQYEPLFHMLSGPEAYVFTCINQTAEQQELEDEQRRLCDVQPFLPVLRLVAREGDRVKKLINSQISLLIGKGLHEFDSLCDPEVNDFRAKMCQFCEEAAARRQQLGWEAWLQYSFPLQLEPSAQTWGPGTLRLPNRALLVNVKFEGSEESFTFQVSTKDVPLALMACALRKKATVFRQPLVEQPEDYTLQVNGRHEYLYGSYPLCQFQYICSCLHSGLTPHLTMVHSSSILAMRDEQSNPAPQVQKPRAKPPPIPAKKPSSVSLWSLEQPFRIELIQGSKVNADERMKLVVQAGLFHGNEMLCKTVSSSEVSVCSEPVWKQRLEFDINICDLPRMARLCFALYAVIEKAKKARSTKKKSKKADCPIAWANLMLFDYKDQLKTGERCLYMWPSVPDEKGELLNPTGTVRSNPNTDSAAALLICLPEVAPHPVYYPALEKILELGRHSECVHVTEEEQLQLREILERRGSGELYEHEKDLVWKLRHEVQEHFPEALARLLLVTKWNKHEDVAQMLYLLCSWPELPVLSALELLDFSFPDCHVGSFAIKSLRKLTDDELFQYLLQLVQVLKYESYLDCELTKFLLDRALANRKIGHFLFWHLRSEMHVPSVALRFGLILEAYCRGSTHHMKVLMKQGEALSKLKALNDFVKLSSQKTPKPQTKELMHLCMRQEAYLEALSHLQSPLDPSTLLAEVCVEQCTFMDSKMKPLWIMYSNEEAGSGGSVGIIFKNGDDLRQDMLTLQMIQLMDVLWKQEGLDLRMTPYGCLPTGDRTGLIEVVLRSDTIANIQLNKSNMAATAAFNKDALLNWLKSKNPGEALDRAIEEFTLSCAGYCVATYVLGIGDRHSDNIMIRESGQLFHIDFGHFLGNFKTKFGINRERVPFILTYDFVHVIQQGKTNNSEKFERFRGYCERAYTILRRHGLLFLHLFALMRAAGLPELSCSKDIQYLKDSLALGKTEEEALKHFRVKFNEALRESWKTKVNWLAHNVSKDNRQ
Chain of PI3Kδ (p110δ/p85α) (P27986 whole entry partner): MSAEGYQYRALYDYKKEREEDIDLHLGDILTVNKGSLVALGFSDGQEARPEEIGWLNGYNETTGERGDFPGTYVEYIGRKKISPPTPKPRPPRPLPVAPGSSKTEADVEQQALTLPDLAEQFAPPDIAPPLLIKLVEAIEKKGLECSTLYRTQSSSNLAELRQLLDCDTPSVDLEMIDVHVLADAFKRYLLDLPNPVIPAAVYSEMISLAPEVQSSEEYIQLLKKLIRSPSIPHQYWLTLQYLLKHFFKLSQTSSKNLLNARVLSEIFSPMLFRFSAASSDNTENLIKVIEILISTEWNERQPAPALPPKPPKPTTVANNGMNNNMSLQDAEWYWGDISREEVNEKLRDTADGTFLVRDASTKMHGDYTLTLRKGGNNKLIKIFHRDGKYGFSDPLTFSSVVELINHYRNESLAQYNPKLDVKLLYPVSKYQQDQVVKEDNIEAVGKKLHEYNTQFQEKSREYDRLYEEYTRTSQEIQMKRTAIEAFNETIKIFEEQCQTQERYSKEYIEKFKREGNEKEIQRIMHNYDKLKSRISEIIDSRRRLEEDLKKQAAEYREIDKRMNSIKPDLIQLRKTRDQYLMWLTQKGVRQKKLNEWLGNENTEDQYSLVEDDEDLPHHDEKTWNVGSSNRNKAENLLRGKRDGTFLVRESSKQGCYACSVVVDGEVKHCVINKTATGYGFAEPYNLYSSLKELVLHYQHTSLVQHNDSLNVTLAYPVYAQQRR

Compound | pIC50 (PI3Kδ (p110δ/p85α)) | pIC50 (JAK1) | JAK2/ JAK1 (JAK2)
CCOc1c(C(C)n2nc(C)c3c(N)ncnc32)cc(Cl)c(F)c1C1CNC(=O)C1 (single isomer, unassigned) [Example 1D, 4-{3-[1-(4-amino-3-methyl-1H-pyrazolo[3,4-d]pyrimidin-1-yl)ethyl]-5-chloro-2-ethoxy-6-fluorophenyl}pyrrolidin-2-one] | 6.70 to 7.30 |  | 
CCOc1c(C(C)n2nc(C)c3c(N)ncnc32)cc(Cl)c(F)c1C1CNC(=O)O1 (single isomer, unassigned) [Example 2B, 5-{3-[1-(4-amino-3-methyl-1H-pyrazolo[3,4-d]pyrimidin-1-yl)ethyl]-5-chloro-2-ethoxy-6-fluorophenyl}-1,3-oxazolidin-2-one] | 6.70 to 7.30 |  | 
CCOc1c(C(C)n2nc(C)c3c(N)ncnc32)cc(Cl)c(F)c1C1CNC(=O)O1 (single isomer, unassigned) [Example 2D, 5-{3-[1-(4-amino-3-methyl-1H-pyrazolo[3,4-d]pyrimidin-1-yl)ethyl]-5-chloro-2-ethoxy-6-fluorophenyl}-1,3-oxazolidin-2-one] | < 6.30 |  | 
N#CCC(C1CCN(c2cccc(Cl)n2)C1)n1cc(-c2ncnc3[nH]ccc23)cn1 (stereo not shown) [Example 3, 3-[1-(6-chloropyridin-2-yl)pyrrolidin-3-yl]-3-[4-(7H-pyrrolo[2,3-d]pyrimidin-4-yl)-1H-pyrazol-1-yl]propanenitrile] |  | > 8.00 | >10
N#CCC(CN1CCN(C(=O)c2ccc(C#N)cc2F)CC1)n1cc(-c2ncnc3[nH]ccc23)cn1 (stereo not shown) [Example 5, 4-[(4-{3-cyano-2-[4-(7H-pyrrolo[2,3-d]pyrimidin-4-yl)-1H-pyrazol-1-yl]propyl}piperazin-1-yl)carbonyl]-3-fluorobenzonitrile] |  | > 8.00 | >10
N#CCC(CN1CCN(C(=O)c2ccc(C#N)cc2F)CC1)n1ccc(-c2ncnc3[nH]ccc23)c1 (stereo not shown) [Example 6, 4-[(4-{3-cyano-2-[3-(7H-pyrrolo[2,3-d]pyrimidin-4-yl)-1H-pyrrol-1-yl]propyl}piperazin-1-yl)carbonyl]-3-fluorobenzonitrile] |  | > 8.00 | >10
N#CCC1(n2cc(-c3ncnc4[nH]ccc34)cn2)CN(C2CCN(C(=O)Nc3ccc(F)cc3C(F)(F)F)CC2)C1 [Example 8] |  | > 8.00 | >10
N#CC[C@]1(n2cc(-c3ncnc4[nH]ccc34)cn2)C[C@H](N2CCC(Oc3cc(CN4CC(O)C4)cc(C(F)(F)F)n3)CC2)C1 [Example 11] |  | > 8.00 | >10
N#CC[C@]1(n2cc(-c3ncnc4[nH]ccc34)cn2)C[C@H](N2CCC(Oc3cc(CN4CCC[C@H]4CO)cc(C(F)(F)F)n3)CC2)C1 [Example 12] |  | > 8.00 | >10
N#CCC1(n2cc(-c3ncnc4[nH]ccc34)cn2)CN([C@H]2CC[C@@H](Oc3cc(CCO)nc(C(F)(F)F)n3)CC2)C1 [Example 18, {1-(cis-4-{[6-(2-hydroxyethyl)-2-(trifluoromethyl)pyrimidin-4-yl]oxy}cyclohexyl)-3-[4-(7H-pyrrolo[2,3-d]pyrimidin-4-yl)-1H-pyrazol-1-yl]azetidin-3-yl}acetonitrile] |  | > 8.00 | >10
CCNCc1cc(O[C@H]2CC[C@@H](N3CC(CC#N)(n4cc(-c5ncnc6[nH]ccc56)cn4)C3)CC2)nc(C(F)(F)F)c1 [Example 19, {1-(cis-4-{[4-[(ethylamino)methyl]-6-(trifluoromethyl)pyridin-2-yl]oxy}cyclohexyl)-3-[4-(7H-pyrrolo[2,3-d]pyrimidin-4-yl)-1H-pyrazol-1-yl]azetidin-3-yl}acetonitrile] |  | > 8.00 | >10
CC(C)(O)c1cc(O[C@H]2CC[C@@H](N3CC(CC#N)(n4cc(-c5ncnc6[nH]ccc56)cn4)C3)CC2)nc(C(F)(F)F)c1 [Example 20, {1-(cis-4-{[4-(1-hydroxy-1-methylethyl)-6-(trifluoromethyl)pyridin-2-yl]oxy}cyclohexyl)-3-[4-(7H-pyrrolo[2,3-d]pyrimidin-4-yl)-1H-pyrazol-1-yl]azetidin-3-yl}acetonitrile] |  | > 8.00 | >10
N#CCC1(n2cc(-c3ncnc4[nH]ccc34)cn2)CN([C@H]2CC[C@@H](Oc3cc(CN4CC[C@@H](O)C4)cc(C(F)(F)F)n3)CC2)C1 [Example 21, {1-(cis-4-{[4-{[(3R)-3-hydroxypyrrolidin-1-yl]methyl}-6-(trifluoromethyl)pyridin-2-yl]oxy}cyclohexyl)-3-[4-(7H-pyrrolo[2,3-d]pyrimidin-4-yl)-1H-pyrazol-1-yl]azetidin-3-yl}acetonitrile] |  | > 8.00 | >10
C[C@@H](CO)NCc1cc(OC2CCN([C@H]3C[C@](CC#N)(n4cc(-c5ncnc6[nH]ccc56)cn4)C3)CC2)nc(C(F)(F)F)c1 [Example 23] |  | > 8.00 | >10
C[C@@H](O)CNCc1cc(OC2CCN([C@H]3C[C@](CC#N)(n4cc(-c5ncnc6[nH]ccc56)cn4)C3)CC2)nc(C(F)(F)F)c1 [Example 24] |  | > 8.00 | >10
N#CC[C@]1(n2cc(-c3ncnc4[nH]ccc34)cn2)C[C@H](N2CCC(Oc3cc(CCO)cc(C(F)(F)F)n3)CC2)C1 [Example 26] |  | > 8.00 | >10

Now from value to molecule:

pIC50 (PI3Kδ (p110δ/p85α)) | pIC50 (JAK1) | JAK2/ JAK1 (JAK2) | Compound
6.70 to 7.30 |  |  | CCOc1c(C(C)n2nc(C)c3c(N)ncnc32)cc(Cl)c(F)c1C1CNC(=O)C1 (single isomer, unassigned) [Example 1A, 4-{3-[1-(4-amino-3-methyl-1H-pyrazolo[3,4-d]pyrimidin-1-yl)ethyl]-5-chloro-2-ethoxy-6-fluorophenyl}pyrrolidin-2-one]
6.70 to 7.30 |  |  | CCOc1c(C(C)n2nc(C)c3c(N)ncnc32)cc(Cl)c(F)c1C1CNC(=O)O1 (single isomer, unassigned) [Example 2A, 5-{3-[1-(4-amino-3-methyl-1H-pyrazolo[3,4-d]pyrimidin-1-yl)ethyl]-5-chloro-2-ethoxy-6-fluorophenyl}-1,3-oxazolidin-2-one]
 | > 7.00 | >10 | C[C@@H](O)c1nc2cnc3ccsc3c2n1[C@H]1CC[C@H](CC#N)OC1 [Example 1, ((2R,5S)-5-{2-[(1R)-1-hydroxyethyl]-1H-imidazo[4,5-d]thieno[3,2-b]pyridin-1-yl}tetrahydro-2H-pyran-2-yl)acetonitrile]
 | > 8.00 | >10 | N#CCC(C1CCN(c2nc3cccnc3o2)C1)n1cc(-c2ncnc3[nH]ccc23)cn1 (stereo not shown) [Example 4, 3-(1-[1,3]oxazolo[5,4-b]pyridin-2-ylpyrrolidin-3-yl)-3-[4-(7H-pyrrolo[2,3-d]pyrimidin-4-yl)-1H-pyrazol-1-yl]propanenitrile]
 | > 8.00 | >10 | N#CCC1(n2cc(-c3ncnc4[nH]ccc34)cn2)CN(C2CCN(C(=O)c3ccnc(C(F)(F)F)c3F)CC2)C1 [Example 7]
 | > 8.00 | >10 | N#CCC1(n2cc(-c3ncnc4[nH]ccc34)cn2)CN(C2CCN(C(=O)c3ccnc(C(F)(F)F)n3)CC2)C1 [Example 9, [3-[4-(7H-pyrrolo[2,3-d]pyrimidin-4-yl)-1H-pyrazol-1-yl]-1-(1-{[2-(trifluoromethyl)pyrimidin-4-yl]carbonyl}piperidin-4-yl)azetidin-3-yl]acetonitrile]
 | > 8.00 | >10 | N#CC[C@]1(n2cc(-c3ncnc4[nH]ccc34)cn2)C[C@H](N2CCN(C(=O)c3ccnc(C(F)(F)F)n3)CC2)C1 [Example 10]
 | > 8.00 | >10 | N#CC[C@]1(n2cc(-c3ncnc4[nH]ccc34)cn2)C[C@H](N2CCC(Oc3cc(CN4CCC[C@@H]4CO)cc(C(F)(F)F)n3)CC2)C1 [Example 13]
 | > 8.00 | >10 | C[C@H](NC(=O)c1cc(F)c(N2CC(CC#N)(n3cc(-c4ncnc5[nH]ccc45)cn3)C2)cc1F)C(F)(F)F [Example 16, 4-{3-(cyanomethyl)-3-[4-(7H-pyrrolo[2,3-d]pyrimidin-4-yl)-1H-pyrazol-1-yl]azetidin-1-yl}-2,5-difluoro-N-[(1S)-2,2,2-trifluoro-1-methylethyl]benzamide]
 | > 8.00 | >10 | N#CCC1(n2cc(-c3ncnc4[nH]ccc34)cn2)CN([C@H]2CC[C@@H](Oc3cc(CN4CC[C@H](O)C4)cc(C(F)(F)F)n3)CC2)C1 [Example 22, {1-(cis-4-{[4-{[(3S)-3-hydroxypyrrolidin-1-yl]methyl}-6-(trifluoromethyl)pyridin-2-yl]oxy}cyclohexyl)-3-[4-(7H-pyrrolo[2,3-d]pyrimidin-4-yl)-1H-pyrazol-1-yl]azetidin-3-yl}acetonitrile]
 | > 8.00 | >10 | C[C@H](O)CNCc1cc(OC2CCN([C@H]3C[C@](CC#N)(n4cc(-c5ncnc6[nH]ccc56)cn4)C3)CC2)nc(C(F)(F)F)c1 [Example 25]

— US12226418B2, “Dosing regimen for the treatment of PI3K related disorders” (Incyte Corporation, priority 2018, dated 2025)
